# According to ChEMBL document CHEMBL1148031, “Rational design of inhibitors of VirA-VirG two-component signal transduction” (Bioorg Med Chem Lett, 2007):
# System: Agrobacterium tumefaciens
# Assay: Inhibition of acetosyringone-induced virB::lacZ expression in Agrobacterium tumefaciens A348/pSW209
# Type: functional, organism-based
row,Structure (SMILES),IC50
1,CCOc1cc(OCC)c2c(c1)C(=O)OC2O (configuration not stated),8 µM
2,O=CC(=O)Oc1ccccc1,25 µM
3,COc1cc(C=O)cc(OC)c1,> 200 µM
4,COc1cc(OC)c2c(c1NC(C)=O)C(=O)OC2O (configuration not stated),> 200 µM
5,O=CC(=O)c1ccccc1 [PHENYLGLYOXAL],40 µM
6,COc1cc(OC)c2c(c1N)C(=O)OC2O (configuration not stated),> 200 µM
7,COc1cc(OC)c(C(C)=O)c(C(=O)O)c1,> 200 µM
8,COc1cc(CC(=O)O)c(C=O)c(OC)c1,> 200 µM
9,CC(=O)c1ccccc1C=O,25 µM
10,O=CCC(=O)N(O)c1ccccc1,> 400 µM
11,CCCCC(=O)c1c(OC)cc(OC)cc1C(=O)O,> 200 µM
12,CCCCC(=O)c1ccccc1C=O,20 µM
13,COc1cc(OC)c(C=O)c(C(C)=O)c1,25 µM
14,O=Cc1ccccc1C(=O)O,> 200 µM
15,COc1ccc2c(c1)C(O)OC2=O (configuration not stated),41 µM
16,COc1ccc2c(c1)C(=O)OC2O (configuration not stated),> 200 µM

row,Structure (SMILES),IC50
1,COc1cc(C=O)c(C(C)=O)c(OC)c1,25 µM
2,COc1ccccc1C(=O)C=O,34 µM
3,COc1cccc2c1C(=O)OC2O (configuration not stated),> 200 µM
4,COc1cc(OC)c([N+](=O)[O-])c2c1C(O)OC2=O (configuration not stated),> 200 µM
5,CCCCC(=O)c1c(C=O)cc(OC)cc1OC,10 µM
6,COc1ccc(C=O)c(OC)c1,> 200 µM
7,COc1cc(OC)c(C(C)=O)c(C(C)=O)c1,> 200 µM
8,COc1cc(OC)c2c(c1O)C(=O)OC2O (configuration not stated),> 100 µM
9,CCCCC(=O)c1cc(OC)cc(OC)c1C=O,10 µM
10,O=CC(=O)Nc1ccccc1,35 µM
11,COc1ccc(N(OC)C(=O)C=O)c(O)c1,< 1 µM
12,COc1cc(OC)c(C=O)c(C(=O)O)c1,8 µM
13,O=C1OC(O)c2ccccc21 (configuration not stated),25 µM
14,COc1ccc(N(O)C(=O)C=O)c(O)c1,30 µM
15,COc1cccc2c1C(O)OC2=O (configuration not stated),> 200 µM
16,O=CC(=O)N(O)c1ccccc1,25 µM
